Experiments:
[1] = system: E. coli expressing His-OmpC; test: Decorating bacteria with the oligonucleotides, fluorescence imaging; format: cell-based
Procedure: (§1) E. coli K-12 strain KRX (Promega) was used for protein expression. Transformed bacteria with the different OmpC constructs (OmpC or His-OmpC) were cultured to saturation in LB medium supplemented with 100 μg/ml of ampicillin at 30° C. 40 μl of the pre-cultured cells were then diluted into 4 ml of fresh LB medium supplemented with ampicillin, and incubated until the OD600 reaches ˜0.6. Protein expression was then induced by the addition of 0.1% Rhamnose and 20 μM isopropyl-b-D-1-thiogalactopyranoside (IPTG) and cultures were allowed to grow at 30° C. for 18 h. Then, the bacterial cells were harvested by centrifugation at 6,000 g for 4 min.
The bacterial cells (OmpC or His-OmpC) were collected by centrifugation at 6000 g for 4 min. The pellet was washed twice with PBS×1 buffer and resuspended in the same buffer to an OD600 of 0.3. […] Then the bacterial sample were washed twice with PBS, resuspended in 100 μl PBS and placed on a glass-bottom dish (P35G-1.5-14-C; MatTek) precoated with poly-1-lysine (Sigma Aldrich) and left to adhere for 1 h. Finally, the wells were washed vigorously with PBS three times and imaged using an Olympus IX51 fluorescent microscope. The samples were imaged using 60× or 100× objective lenses.

[2] = system: Native bacteria (that lack His-tag); test: Decorating bacteria with the oligonucleotides, fluorescence imaging (native bacteria control); format: cell-based, E. coli; settings: native bacteria lacking His-OmpC; 500 nM with Ni (II)
Procedure: as §1
The bacterial cells (OmpC or His-OmpC) were collected by centrifugation at 6000 g for 4 min. The pellet was washed twice with PBS×1 buffer and resuspended in the same buffer to an OD600 of 0.3. To a 100 μl sample of the bacteria suspension, a preincubated sample of DNA (500 nM) and NiCl2 (2.5 μM) was added, and the cells were incubated at room temperature for 1 h. Then the bacterial sample were washed twice with PBS, resuspended in 100 μl PBS and placed on a glass-bottom dish (P35G-1.5-14-C; MatTek) precoated with poly-1-lysine (Sigma Aldrich) and left to adhere for 1 h. Finally, the wells were washed vigorously with PBS three times and imaged using an Olympus IX51 fluorescent microscope. The samples were imaged using 60× or 100× objective lenses.

[3] = system: E. coli expressing His-OmpC; test: Treatment of the modified bacteria with EDTA; format: cell-based; settings: 10 mM EDTA, 1 h
Procedure: Bacterial samples decorated with Compound 100 were incubated with various concentrations of EDTA (0, 5, 10 mM) for 1 h. Cells were then collected (6,000 g, 4 min) and washed twice with […] PBS buffer. Cells were resuspended in 100 μl PBS buffer and added to poly-1-lysine-coated slides for imaging.

[4] = system: His-tagged bacteria; test: Super-resolution (STORM) microscopy of decorated bacteria; format: cell-based, E. coli; settings: duplex with ODN-1; transverse cut
Procedure: Super-resolution images were collected on a Vutara SR200 STORM (Bruker) microscope based on the single-molecule localization biplane technology. His-tagged bacteria was decorated with ODN-1:Compound 201 duplex according to the procedure described in above. The bacteria were imaged using 647 nm excitation laser and 405 nm activation laser in an imaging buffer composed of 5 mM cysteamine, oxygen scavengers (7 μM glucose oxidase and 56 nM catalase) in 50 mM Tris, 10 mM NaCl and 10% glucose at pH 8.0. Images were recorded using a 60×NA 1.2 water immersion objective (Olympus) and Evolve 512 EMCCD camera (Photometrics) with gain set at 50, frame rate at 50 Hz, and maximal power of 647 and 405 nm lasers set at 6 and 0.05 kW/cm^2, respectively. Total number of frames acquired was 8000. Data was analyzed by the Vutara SRX software.
Methods: Due to the small size of bacteria, super resolution (SR) microscopy was used to visualize E. Coli 's membrane with super resolution (SR). This was achieved by combining ODN-1 with a commercially available ODN-2 (Cy5-ODN-2; Compound 201) bearing a Cy5 dye, which is compatible with stochastic optical reconstruction microscopy (STORM).

[5] = biological target: Alexa 647-modified streptavidin (Streptomyces avidinii, UniProt P22629); test: Bacteria-streptavidin interaction; format: cell-based; settings: duplex with ODN-1 on His-tagged bacteria; Alexa-SA 500 nM, 1 h
Procedure: His-tagged bacterial cells were decorated with a duplex consisting of ODN-1 and Compound 205 duplex according to a similar procedure described above. For binding with streptavidin, cells were incubated with Alexa-647 streptavidin conjugate (500 nM) in PBS×1 for 1 h, and after washing twice with PBS were imaged by fluorescent microscopy. The fluorescent signal was abolished when bacterial cells were treated with ODN-3 (3 μM) for 1 h. The control experiment was performed similarly using bacteria decorated with a duplex containing ODN-1 and the complementary strand.
Methods: His-tagged E. coli were incubated with an ODN-1 molecule and afterwards with a biotin-ODN-2 molecule (Compound 205). Then, the cells were incubated with an Alexa 647-modified streptavidin (FIG. 5A). To verify specificity, the same experiment was performed with an ODN-2 molecule lacking biotin (FIG. 5A). Cells were then incubated with ODN-3 to detach ODN-2 from the cell membranes.

[6] = Adhesion of modified bacteria to the solid support; settings: duplex with ODN-1 on His-tagged bacteria; 15 min; control unmodified bacteria
Procedure: A solution of (11-mercaptoundecyl)tetra(ethylene glycol)^9 (2 mM in ethanol) were added to the gold coated substrates and incubated for 2 h. After removing the solution, the slides were washed four times with ethanol. Bacteria samples decorated with a duplex consisting of Compound 102 and Compound 207 were washed twice with PBS, resuspended in 100 μl phosphate buffer (pH=3.8), and then incubated on gold surfaces for 15 min. The solution containing bacteria was removed, and the slides were rinsed three times with PBS, and twice with water. Finally, they were imaged using an Olympus IX51 microscope.
Methods: His-tagged bacteria were decorated with a duplex assembled from ODN-1 and HS-ODN-2 (Compound 207), namely, an ODN-2 that is appended with a thiol group. HS is known to have high affinity to gold. In the following step, unmodified His-tagged bacteria and thiol-modified His-tagged bacteria (FIG. 6A) were incubated with a gold substrate that was previously passivated with (11-mercaptoundecyl)tetra(ethylene glycol) to prevent non-specific bacterial adhesion. Gold surfaces were observed after 15 min incubation. Cells were then incubated with ODN-3 to detach Compound 207 from bacteria membranes.

[7] = system: MDA-MB-435 cells; test: Fluorescence imaging of bacteria-cell interaction, MDA-MB-435 cells; format: cell-based, human; settings: bacteria linked to duplex with Compound 105; 20 min, washed
Procedure: (§2) Cells (15,000 cells/well) were seeded onto glass bottom culture dishes (MatTek) and allowed to adhere overnight. MDA-MB-435 cells were seeded in MEM medium supplemented with 5% charcoal dextran-stripped calf serum, 1% non-essential amino acids, 1% L-glutamine, and 1% penicillin/streptomycin. KB cells were plated in folate-depleted RPMI supplemented with 10% FBS and 1% penicillin/streptomycin while LNCaP were maintained in RPMI, 10% FBS, 1% L-glutamine, and 1% penicillin/streptomycin. Following day, medium was removed, rinsed thrice with PBS and then the cells were incubated with B-probes 1-4 (prepared by incubating His-bacteria with duplexes 1-4 at 500 nM concentration for 1 h at 25° C. followed by washing with PBS buffer) at 37° C., 5% CO2 in incubator for 20 min. Finally, the excess/unbound bacteria were gently washed off with PBS containing Ca^+2 and Mg^+2 (200 μL×3) and the cells were imaged using a fluorescence microscope with 60× objective lens. […]
(§3) MDA-MB-435 cells, LNCaP and KB cells were maintained in their respective media as mentioned in the previous section. […] After 20 minutes, the unbound bacteria were gently washed off with PBS containing Ca^+2 and Mg^+2 (200 μL×3) and the cells were imaged using a fluorescence microscope and a 60× objective lens.

[8] = system: LNCaP cells; test: Fluorescence imaging of bacteria-cell interaction, LNCaP cells; format: cell-based, human; settings: bacteria linked to duplex with Compound 105; 20 min, washed
Procedure: as §2, §3

Alexa 647-modified streptavidin, sequence (P22629 25-183): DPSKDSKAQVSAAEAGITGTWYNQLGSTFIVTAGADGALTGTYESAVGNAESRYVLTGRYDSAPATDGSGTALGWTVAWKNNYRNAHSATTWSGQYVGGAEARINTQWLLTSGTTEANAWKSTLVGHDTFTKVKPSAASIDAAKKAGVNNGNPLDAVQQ

Q: For “Compound 100: X-ODN-1 with tri-NTA His-tag binder, appended with a Cy5 dye; ODN sequence SEQ ID NO. 1 (GCGGCGAGGCAGC; DNA, backbone and methylation of C not given here; Cy5 dye and tri-NTA His-tag binder attached)”, which “fluorescent decoration of bacteria” value ([1]; 500 nM in the absence of nickel ions) is on record?
A: No fluorescence

Q: And the “fluorescent decoration of bacteria” value ([1]; 500 nM with Ni (II))?
A: successfully decorated

Q: And the “fluorescent decoration of bacteria” value [2]?
A: No fluorescence

Q: And the “removal from the cell surface by EDTA” value [3]?
A: completely removed

Q: For “Compound 201: commercially available ODN-2 bearing a Cy5 dye; SEQ ID NO. 6 (TAGGATCAGGCAGCTATGACGTGAC; DNA, backbone and methylation of C not given here; Cy5 dye attached, commercially available)”, which “localisation of the label on bacteria (STORM)” value [4] is on record?
A: only the outer membrane of the bacteria is labeled

Q: For “Compound 205: biotin-ODN-2 molecule; SEQ ID NO. 6 (TAGGATCAGGCAGCTATGACGTGAC; DNA, backbone and methylation of C not given here; biotin attached)”, which “fluorescence of decorated bacteria after incubation with Alexa 647-modified streptavidin” value [5] is on record?
A: became fluorescent

Q: With “Compound 207: ODN-2 that is appended with a thiol group; SEQ ID NO. 6 (TAGGATCAGGCAGCTATGACGTGAC; DNA, backbone and methylation of C not given here; thiol group appended)” as the substance, how does the “attachment of thiol-modified bacteria to the gold substrate compared with the control” value [6] read?
A: about 8.5 fold

Q: For “Compound 220: alkyne modified Cy5-labeled ODN2 lacking the CSP binder; SEQ ID NO. 6 (DNA TAGGATCAGGCAGCTATGACGTGAC; DNA, backbone not given here; Cy5 label and alkyne modification, further chemistry not fully specified)”, which “fluorescent labeling of MDA-MB-435 cells” value [7] is on record?
A: no labeling was achieved

Q: Which “fluorescent labeling of LNCaP cells” value [8] does the source give for “Compound 230: alkyne modified FAM-labeled ODN2 lacking the CSP binder; SEQ ID NO. 6 (DNA TAGGATCAGGCAGCTATGACGTGAC; DNA, backbone not given here; FAM label and alkyne modification, further chemistry not fully specified)” here?
A: no labeling was achieved

Reference: patent publication US20240368583A1, “DNA CONSTRUCTS, RECOMBINANT CELLS COMPRISING THEREOF, BACTERIAL PROBES, METHODS FOR THEIR PREPARATION, AND METHOD OF USING THEREOF” (YEDA RESEARCH AND DEVELOPMENT CO. LTD., priority 2019, published 2024)
